Assay results taken from US8247211B2, “Glycopeptide antibiotics” (American Cyanamid Company, priority 2001, dated 2012).

What was measured:
Test in all cases: In vitro antibacterial evaluation: minimum inhibitory concentration (MIC), broth dilution method
Format in all cases: cell-based
Staphylococcus sp. = test system: Staphylococcus sp.
In short: (§1)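 First, organisms are seeded at 5×10^5 CFU/mL into Muller-Hinton II […]. Next, antibiotic is applied across 64-0.06 μg/mL by broth dilution (NCCLS M7-A2). Finally, the lowest inhibitory concentration is recorded as MIC.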

Escherichia coli = test system: Escherichia coli
In short: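 Susceptibility determined by NCCLS-recommended broth dilution (M7-A2), Muller-Hinton II […]. Concentration span 64-0.06 μg/mL, inoculum 5×10^5 CFU/mL. Isolates include strains resistant to methicillin, penicillin and/or vancomycin.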

Streptococcus sp. = test system: Streptococcus sp.
In short: as §1

Enterococcus sp. = test system: Enterococcus sp.
In short: as §1

[1] = broth dilution, 5×10^5 CFU/mL, 18 hours at 35° C.
[2] = broth dilution, inoculum 5×10^5 CFU/mL, 18 hours at 35° C.

CC(c1ccccc1)C1NC(=O)CNC(=O)C(CO)NC(=O)C(C(O)C2CNC(=N)N2C2OC(CO)C(O)C(O)C2O)NC(=O)C(C(O)C2CNC(=N)N2)NC(=O)C(Cc2ccc(OC3OC(CO)C(OC4OC5COC(c6ccc(C(=O)c7ccccc7)cc6)OC5C(O)C4O)C(O)C3O)cc2)NC1=O (stereo not drawn) [Example 173, Cyclo[glycyl-β-methylphenylalanyl-O-[4-O-[4,6-O-[4-benzoylbenzylidene)hexopyranosyl]-hexopyranosyl]tyrosyl-3-(2-iminoimidazolidin-4-yl)seryl-3-(3-hexopyranosyl-2-iminoimidazolidin-4-yl)serylseryl]]
0.25 µg/mL: MIC Coagulase Negative Staphylococcus (GC 4549) (Staphylococcus sp.; [1])
16 µg/mL: MIC Escherichia coli (GC 4559) (Escherichia coli; strain GC 4559)
<0.12 µg/mL: MIC Streptococcus agalactiae (GC 4564) (Streptococcus sp.; [2]) | MIC Streptococcus pneumoniae (ATCC 6301) (Streptococcus sp.; [2]) | MIC Streptococcus pneumoniae (GC 1894) (Streptococcus sp.; [2]) | MIC Streptococcus pneumoniae (GC 4565) (Streptococcus sp.; [2]) | MIC Streptococcus pyogenes (GC 4563) (Streptococcus sp.; [2]) | MIC Streptococcus pneumoniae (ATCC 6301) (Streptococcus sp.; strain ATCC 6301) | MIC Streptococcus pneumoniae (GC 1894) (Streptococcus sp.; strain GC 1894) | MIC Streptococcus pyogenes (GC 4563) (Streptococcus sp.; strain GC 4563) | MIC Streptococcus agalactiae (GC 4564) (Streptococcus sp.; strain GC 4564) | MIC Streptococcus pneumoniae (GC 4565) (Streptococcus sp.; strain GC 4565)
32 µg/mL: MIC Escherichia coli (ATCC 25922) (Escherichia coli; strain ATCC 25922)
0.5 µg/mL: MIC Coagulase Negative Staphylococcus (GC 4548) (Staphylococcus sp.; [1]) | MIC Coagulase Negative Staphylococcus (GC 4551) (Staphylococcus sp.; [1]) | MIC Coagulase Negative Staphylococcus (GC 6257) (Staphylococcus sp.; [1]) | MIC Staphylococcus aureus (GC 3051) (Staphylococcus sp.; [1]) | MIC Staphylococcus aureus (GC 4541) (Staphylococcus sp.; [1]) | MIC Staphylococcus aureus (GC 4542) (Staphylococcus sp.; [1]) | MIC Staphylococcus aureus-SMITH (GC 4543) (Staphylococcus sp.; [1]) | MIC Staphylococcus aureus (GC 3051) (Staphylococcus sp.; strain GC 3051, broth dilution, 18 hours at 35° C.) | MIC Staphylococcus aureus (GC 4541) (Staphylococcus sp.; strain GC 4541, broth dilution, 18 hours at 35° C.) | MIC Staphylococcus aureus (GC 4542) (Staphylococcus sp.; strain GC 4542, broth dilution, 18 hours at 35° C.) | MIC Escherichi coli (GC 4560) (Escherichia coli; strain GC 4560)
1 µg/mL: MIC Staphylococcus aureus (ATCC 29213) (Staphylococcus sp.; [1]) | MIC Staphylococcus aureus (GC 3053) (Staphylococcus sp.; [1]) | MIC Staphylococcus haemolyticus (GC 4546) (Staphylococcus sp.; [1]) | MIC Staphylococcus aureus (ATCC 29213) (Staphylococcus sp.; strain ATCC 29213, broth dilution, 18 hours at 35° C.) | MIC Staphylococcus aureus (GC 3053) (Staphylococcus sp.; strain GC 3053, broth dilution, 18 hours at 35° C.) | MIC Enterococcus avium (GC 4558) (Enterococcus sp.; [2]) | MIC Enterococcus faecalis (ATCC 29212) (Enterococcus sp.; [2]) | MIC Enterococcus faecalis (GC 6189) (Enterococcus sp.; [2]) | MIC Enterococcus faecium (GC 4556) (Enterococcus sp.; [2]) | MIC Enterococcus faecalis (ATCC 29212) (Enterococcus sp.; strain ATCC 29212) | MIC Enterococcus faecium (GC 4556) (Enterococcus sp.; strain GC 4556) | MIC Enterococcus avium (GC 4558) (Enterococcus sp.; strain GC 4558) | MIC Enterococcus faecalis (GC 6189) (Enterococcus sp.; strain GC 6189)
2 µg/mL: MIC Coagulase Negative Staphylococcus (GC 4547) (Staphylococcus sp.; [1]) | MIC Staphylococcus aureus (GC 1131) (Staphylococcus sp.; [1]) | MIC Staphylococcus aureus (GC 4544) (Staphylococcus sp.; [1]) | MIC Staphylococcus aureus (GC 4545) (Staphylococcus sp.; [1]) | MIC Staphylococcus aureus (GC 1131) (Staphylococcus sp.; strain GC 1131, broth dilution, 18 hours at 35° C.) | MIC Staphylococcus aureus (GC 4544) (Staphylococcus sp.; strain GC 4544, broth dilution, 18 hours at 35° C.) | MIC Staphylococcus aureus (GC 4545) (Staphylococcus sp.; strain GC 4545, broth dilution, 18 hours at 35° C.) | MIC Enterococcus faecalis (GC 2242) (Enterococcus sp.; [2]) | MIC Enterococcus faecalis (GC 2691) (Enterococcus sp.; [2]) | MIC Enterococcus faecalis (GC 3059) (Enterococcus sp.; [2]) | MIC Enterococcus faecalis (GC 4552) (Enterococcus sp.; [2]) | MIC Enterococcus faecalis (GC 4553) (Enterococcus sp.; [2]) | MIC Enterococcus faecalis (GC 4554) (Enterococcus sp.; [2]) | MIC Enterococcus faecium (GC 2243) (Enterococcus sp.; [2]) | MIC Enterococcus faecium (GC 4557) (Enterococcus sp.; [2]) | MIC Enterococcus faecalis (GC 2242) (Enterococcus sp.; strain GC 2242) | MIC Enterococcus faecium (GC 2243) (Enterococcus sp.; strain GC 2243) | MIC Enterococcus faecalis (GC 2691) (Enterococcus sp.; strain GC 2691) | MIC Enterococcus faecalis (GC 3059) (Enterococcus sp.; strain GC 3059) | MIC Enterococcus faecalis (GC 4552) (Enterococcus sp.; strain GC 4552) | MIC Enterococcus faecalis (GC 4553) (Enterococcus sp.; strain GC 4553) | MIC Enterococcus faecalis (GC 4554) (Enterococcus sp.; strain GC 4554) | MIC Enterococcus faecium (GC 4557) (Enterococcus sp.; strain GC 4557)

CC(c1ccccc1)C1NC(=O)CNC(=O)C(CO)NC(=O)C(C(O)C2CNC(=N)N2C2OC(CO)C(O)C(O)C2O)NC(=O)C(C(O)C2CNC(=N)N2)NC(=O)C(Cc2ccc(OC3OC(CO)C(OC4OC5COC(c6cccc(Oc7cccc(C(F)(F)F)c7)c6)OC5C(O)C4O)C(O)C3O)cc2)NC1=O (stereo not shown) [Example 184]
16 µg/mL: MIC Coagulase Negative Staphylococcus (GC 4548) (Staphylococcus sp.; strain GC 4548) | MIC Coagulase Negative Staphylococcus (GC 6257) (Staphylococcus sp.; strain GC 6257) | MIC Enterococcus faecalis (GC 4553) (Enterococcus sp.; Enterococcus faecalis (GC 4553), 18 hours at 35° C.) | MIC Enterococcus faecium (GC 2243) (Enterococcus sp.; Enterococcus faecium (GC 2243), 18 hours at 35° C.) | MIC Enterococcus faecalis (GC 4553) (Enterococcus sp.; [2]) | MIC Enterococcus faecium (GC 2243) (Enterococcus sp.; [2])
0.12 µg/mL: MIC Streptococcus agalactiae (GC 4564) (Streptococcus sp.; Streptococcus agalactiae (GC 4564), 18 hours at 35° C.) | MIC Streptococcus agalactiae (GC 4564) (Streptococcus sp.; [2])
<0.06 µg/mL: MIC Streptococcus pneumoniae (ATCC 6301) (Streptococcus sp.; Streptococcus pneumoniae (ATCC 6301), 18 hours at 35° C.) | MIC Streptococcus pneumoniae (GC 1894) (Streptococcus sp.; Streptococcus pneumoniae (GC 1894), 18 hours at 35° C.) | MIC Streptococcus pneumoniae (GC 4565) (Streptococcus sp.; Streptococcus pneumoniae (GC 4565), 18 hours at 35° C.) | MIC Streptococcus pneumoniae (ATCC 6301) (Streptococcus sp.; [2]) | MIC Streptococcus pneumoniae (GC 1894) (Streptococcus sp.; [2]) | MIC Streptococcus pneumoniae (GC 4565) (Streptococcus sp.; [2])
32 µg/mL: MIC Staphylococcus aureus (ATCC 29213) (Staphylococcus sp.; strain ATCC 29213) | MIC Staphylococcus aureus (GC 1131) (Staphylococcus sp.; strain GC 1131) | MIC Staphylococcus aureus (GC 3051) (Staphylococcus sp.; strain GC 3051) | MIC Staphylococcus aureus (GC 3053) (Staphylococcus sp.; strain GC 3053) | MIC Staphylococcus aureus (GC 4541) (Staphylococcus sp.; strain GC 4541) | MIC Staphylococcus aureus (GC 4542) (Staphylococcus sp.; strain GC 4542) | MIC Staphylococcus aureus-SMITH (GC 4543) (Staphylococcus sp.; strain GC 4543) | MIC Staphylococcus aureus (GC 4544) (Staphylococcus sp.; strain GC 4544) | MIC Staphylococcus aureus (GC 4545) (Staphylococcus sp.; strain GC 4545) | MIC Staphylococcus haemolyticus (GC 4546) (Staphylococcus sp.; strain GC 4546) | MIC Coagulase Negative Staphylococcus (GC 4547) (Staphylococcus sp.; strain GC 4547) | MIC Coagulase Negative Staphylococcus (GC 4549) (Staphylococcus sp.; strain GC 4549) | MIC Coagulase Negative Staphylococcus (GC 4551) (Staphylococcus sp.; strain GC 4551) | MIC Escherichia coli (GC 4560) (Escherichia coli; Escherichia coli (GC 4560), 18 hours at 35° C.) | MIC Enterococcus avium (GC 4558) (Enterococcus sp.; Enterococcus avium (GC 4558), 18 hours at 35° C.) | MIC Enterococcus faecalis (ATCC 29212) (Enterococcus sp.; Enterococcus faecalis (ATCC 29212), 18 hours at 35° C.) | MIC Enterococcus faecalis (GC 2242) (Enterococcus sp.; Enterococcus faecalis (GC 2242), 18 hours at 35° C.) | MIC Enterococcus faecalis (GC 2691) (Enterococcus sp.; Enterococcus faecalis (GC 2691), 18 hours at 35° C.) | MIC Enterococcus faecalis (GC 3059) (Enterococcus sp.; Enterococcus faecalis (GC 3059), 18 hours at 35° C.) | MIC Enterococcus faecalis (GC 4552) (Enterococcus sp.; Enterococcus faecalis (GC 4552), 18 hours at 35° C.) | MIC Enterococcus faecalis (GC 4554) (Enterococcus sp.; Enterococcus faecalis (GC 4554), 18 hours at 35° C.) | MIC Enterococcus faecalis (GC 6189) (Enterococcus sp.; Enterococcus faecalis (GC 6189), 18 hours at 35° C.) | MIC Enterococcus faecium (GC 4556) (Enterococcus sp.; Enterococcus faecium (GC 4556), 18 hours at 35° C.) | MIC Enterococcus faecium (GC 4557) (Enterococcus sp.; Enterococcus faecium (GC 4557), 18 hours at 35° C.) | MIC Enterococcus avium (GC 4558) (Enterococcus sp.; [2]) | MIC Enterococcus faecalis (ATCC 29212) (Enterococcus sp.; [2]) | MIC Enterococcus faecalis (GC 2242) (Enterococcus sp.; [2]) | MIC Enterococcus faecalis (GC 2691) (Enterococcus sp.; [2]) | MIC Enterococcus faecalis (GC 3059) (Enterococcus sp.; [2]) | MIC Enterococcus faecalis (GC 4552) (Enterococcus sp.; [2]) | MIC Enterococcus faecalis (GC 4554) (Enterococcus sp.; [2]) | MIC Enterococcus faecalis (GC 6189) (Enterococcus sp.; [2]) | MIC Enterococcus faecium (GC 4556) (Enterococcus sp.; [2]) | MIC Enterococcus faecium (GC 4557) (Enterococcus sp.; [2])
0.25 µg/mL: MIC Streptococcus pyogenes (GC 4563) (Streptococcus sp.; Streptococcus pyogenes (GC 4563), 18 hours at 35° C.) | MIC Streptococcus pyogenes (GC 4563) (Streptococcus sp.; [2])
>64 µg/mL: MIC Escherichia coli (ATCC 25922) (Escherichia coli; Escherichia coli (ATCC 25922), 18 hours at 35° C.) | MIC Escherichia coli (GC 4559) (Escherichia coli; Escherichia coli (GC 4559), 18 hours at 35° C.)
